Results on two molecules are retold here after patent publication US10300056B2, “CGRP receptor antagonists” (Heptares Therapeutics Limited, priority 2015, dated 2019).

The target in one data set is CGRP receptor (Homo sapiens (Human), UniProt O60894+Q16602). The note with it: in words, literature; cited from earlier work.
Data set [1] addresses CGRP receptor ectodomain complex (Homo sapiens (Human), UniProt O60894+Q16602). The data set can be described thus: Receptor kinetic profiling by surface plasmon resonance (Biacore T200). The note with it: dissociation half-life, SPR, 25° C.
Procedure: Kinetic analyses were run on a Biacore T200 instrument (GE Healthcare Bio-Sciences AB, Uppsala, Sweden) at 25° C. using 0.05 mM EDTA, PBS (10 mM phosphate buffer, 2.7 mM KCl, 137 mM NaCl) pH 7.4, 0.005% v/v Surfactant P20, 5% DMSO as the running buffer. […] The chip was loaded with Ni^2+ and carboxyl groups of the dextran matrix were activated by EDC/NHS. The receptor ectodomain complex (100 nM in running buffer) was then injected and immobilised via the His-tag and amino groups. Two fold dilution series of each compound (five concentrations, in the range 25-40 nM) were injected. Blank-subtracted data were fitted to a 1:1 interaction model to obtain kinetic parameters which are expressed in Table 4 as dissociation half-life (t1/2=(ln 2/off-rate (kd)/60).
For data set [2] the following is noted: at 24 h after intravenous infusion of a 2.5 mg dose; cited from earlier work.

Chain of CGRP receptor (Q16602 23-461): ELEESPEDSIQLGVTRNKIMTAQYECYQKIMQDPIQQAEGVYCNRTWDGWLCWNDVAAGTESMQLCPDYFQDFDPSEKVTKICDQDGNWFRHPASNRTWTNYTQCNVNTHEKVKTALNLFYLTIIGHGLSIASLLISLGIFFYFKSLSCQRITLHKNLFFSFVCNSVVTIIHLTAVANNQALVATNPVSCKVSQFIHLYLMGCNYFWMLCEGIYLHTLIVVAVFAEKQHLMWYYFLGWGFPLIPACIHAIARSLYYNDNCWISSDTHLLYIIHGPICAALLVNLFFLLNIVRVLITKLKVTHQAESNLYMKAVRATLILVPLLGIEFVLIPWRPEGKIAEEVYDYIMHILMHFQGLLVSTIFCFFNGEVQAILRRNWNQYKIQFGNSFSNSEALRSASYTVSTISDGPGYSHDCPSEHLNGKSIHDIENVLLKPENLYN
Chain of CGRP receptor (O60894 27-148): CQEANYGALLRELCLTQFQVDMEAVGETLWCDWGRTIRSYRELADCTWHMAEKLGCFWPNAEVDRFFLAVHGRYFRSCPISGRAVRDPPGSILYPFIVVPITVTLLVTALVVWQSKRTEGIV
Chain of CGRP receptor ectodomain complex (Q16602 23-139): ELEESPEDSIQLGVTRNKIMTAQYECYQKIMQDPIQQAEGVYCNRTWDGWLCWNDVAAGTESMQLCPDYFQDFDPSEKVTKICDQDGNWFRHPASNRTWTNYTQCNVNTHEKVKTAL
Chain of CGRP receptor ectodomain complex (O60894 27-118): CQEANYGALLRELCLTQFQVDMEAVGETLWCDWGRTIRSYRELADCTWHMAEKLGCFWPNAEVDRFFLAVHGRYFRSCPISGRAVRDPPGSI

Regarding `NCCCC[C@H](NC(=O)[C@@H](Cc1cc(Br)c(O)c(Br)c1)NC(=O)N1CCC(N2Cc3ccccc3NC2=O)CC1)C(=O)N1CCN(c2ccncc2)CC1` [olcegepant], the “kinetics at the CGRP receptor” value on CGRP receptor is “slow kinetics”. The “CGRP t1/2” value in data set [1] is reported as 30 min. The headache-free rate in data set [2] was 47%.
Take `O=C(CN1C(=O)C2(CCCC2)NC[C@H]1c1cc(F)cc(F)c1)Nc1ccc2c(c1)C[C@@]1(C2)C(=O)Nc2ncccc21` [MK-3207, reference compound]: at CGRP receptor, the “kinetics at the CGRP receptor” value is listed as “relatively slow dissociation”. Further, in data set [1], the “CGRP t1/2” value is 27 min.
